Measurements published in patent US4160643A, “Water soluble cationic azo dyestuffs containing a cyclammonium group” (Imperial Chemical Industries Limited, priority 1976, dated 1979).
Like-named read-outs stand apart in the source and are kept apart here. Each block holds one compound with its values, some of them ahead of it.

Assays:
[1] = Solubility of dyestuffs in water; assay type: physicochemical
[2] = Behaviour in forming a liquid in a water/acetic acid/sulpholane solvent system; assay type: physicochemical; details: Table 1; ambient temperature
[3] = Table 1, 25° C., read-out: Solubility in water at 25° C.
[4] = Table 3, dyestuff of Example 13 structure, chloride, 25° C., read-out: Solubility in water at 25° C.
[5] = Table 3, dyestuff of Example 13 structure, chloride, 50° C., read-out: Solubility in water at 50° C.
[6] = Table 4, dyestuff of Example 19 structure, acid sulphate, 25° C., read-out: Solubility in water at 25° C.
[7] = Table 4, dyestuff of Example 19 structure, acid sulphate, 50° C., read-out: Solubility in water at 50° C.

solubility [1, 3]: < 2500 µg/mL
Solubility of 1 part of dye in 1 part water 1.5 part acetic acid 1 part sulpholane [2]: Not a solution at ambient
Structure (SMILES): O=[N+]([O-])c1ccc(N=Nc2ccc(NCC[n+]3ccccc3)c(Cl)c2)cc1 [Pyridine (Table 1)]

solubility [1, 4]: 10000 µg/mL
solubility [1, 5]: 300000 µg/mL
Structure (SMILES): CCN(CC[n+]1ccccc1)c1ccc(N=Nc2ccc([N+](=O)[O-])cc2Cl)cc1 [Pyridine (Table 3)]

solubility [1, 6]: 10000 µg/mL
solubility [1, 7]: 20000 µg/mL
Structure (SMILES): CCN(CC[n+]1ccccc1)c1ccc(N=Nc2c(Cl)cc([N+](=O)[O-])cc2Cl)cc1 [Pyridine (Table 4)]

solubility [1, 3]: < 2500 µg/mL
Structure (SMILES): Cc1cccc[n+]1CCNc1ccc(N=Nc2ccc([N+](=O)[O-])cc2)cc1Cl [α-picoline]

solubility [1, 3]: 75000 to 100000 µg/mL
Solubility of 1 part of dye in 1 part water 1.5 part acetic acid 1 part sulpholane [2]: Not a solution at ambient
Structure (SMILES): Cc1cc[n+](CCNc2ccc(N=Nc3ccc([N+](=O)[O-])cc3)cc2Cl)cc1 [γ-picoline (Table 1)]

solubility [1, 4]: 10000 µg/mL
solubility [1, 5]: 240000 µg/mL
Structure (SMILES): CCN(CC[n+]1ccc(C)cc1)c1ccc(N=Nc2ccc([N+](=O)[O-])cc2Cl)cc1 [γ-picoline (Table 3)]

solubility [1, 6]: 1000 µg/mL
solubility [1, 7]: 5000 µg/mL
Structure (SMILES): CCN(CC[n+]1ccc(C)cc1)c1ccc(N=Nc2c(Cl)cc([N+](=O)[O-])cc2Cl)cc1 [γ-picoline (Table 4)]
